target: Wild Type HPK1 (MAP4K1) Kinase (Homo sapiens (Human), UniProt Q92918); test: HPK1 Assay (Caliper EZ reader, fluorescein tagged peptide substrate); assay type: biochemical; settings: ATP 500 micromolar, kinase 6 nM, pH 7.4
Procedure: The enzymatic activity of Wild Type HPK1 (MAP4K1) Kinase was measured in the presence or absence of an inhibitor compound of the present disclosure by preparation of a reaction mixture containing a fluorescein tagged peptide (2 micromolar final concentration), ATP (Adenosine Triphosphate, 500 micromolar final concentration) and Wild Type kinase (6 nM final concentration) in a buffer system comprising 50 mM HEPES (Buffer), 3 mM MgCl2, 5% w/v Trehalose, 0.01% Brij 35 (Detergent), 0.1% Pluronic F127 (Surfactant), 0.1 mM EDTA (Ethylenediaminetetraacetic acid), 0.1 mM EGTA (ethylene glycol-bis(β-aminoethyl ether)-N,N,N′,N′-tetraacetic acid) and 1 mM DTT (Dithiothreitol) and at a pH of 7.4. The reactions were quenched by the addition of EDTA to a final concentration of 25 mM. A Caliper EZ reader was used to measure the extent of substrate to product conversion.
The peptide substrate used in the HPK1 assay was designed based on the amino acid sequence surrounding serine residue 376 of SLP76-Lymphocyte cytosolic protein 2 (a known intracellular substrate of HPK1). This sequence SSFPQSAsLPPYFSQ was modified as follows for use in Caliper assays of HPK1: the serine residues on either side of serine 376 were replaced with alanine, three lysine residues were added at the […] and a fluorescein tag (FAM) was attached to the […] to produce the sequence, FAM-FPQAAsLPPYFAKKK.

Chain of Wild Type HPK1 (MAP4K1) Kinase (Q92918 whole entry, species assumed): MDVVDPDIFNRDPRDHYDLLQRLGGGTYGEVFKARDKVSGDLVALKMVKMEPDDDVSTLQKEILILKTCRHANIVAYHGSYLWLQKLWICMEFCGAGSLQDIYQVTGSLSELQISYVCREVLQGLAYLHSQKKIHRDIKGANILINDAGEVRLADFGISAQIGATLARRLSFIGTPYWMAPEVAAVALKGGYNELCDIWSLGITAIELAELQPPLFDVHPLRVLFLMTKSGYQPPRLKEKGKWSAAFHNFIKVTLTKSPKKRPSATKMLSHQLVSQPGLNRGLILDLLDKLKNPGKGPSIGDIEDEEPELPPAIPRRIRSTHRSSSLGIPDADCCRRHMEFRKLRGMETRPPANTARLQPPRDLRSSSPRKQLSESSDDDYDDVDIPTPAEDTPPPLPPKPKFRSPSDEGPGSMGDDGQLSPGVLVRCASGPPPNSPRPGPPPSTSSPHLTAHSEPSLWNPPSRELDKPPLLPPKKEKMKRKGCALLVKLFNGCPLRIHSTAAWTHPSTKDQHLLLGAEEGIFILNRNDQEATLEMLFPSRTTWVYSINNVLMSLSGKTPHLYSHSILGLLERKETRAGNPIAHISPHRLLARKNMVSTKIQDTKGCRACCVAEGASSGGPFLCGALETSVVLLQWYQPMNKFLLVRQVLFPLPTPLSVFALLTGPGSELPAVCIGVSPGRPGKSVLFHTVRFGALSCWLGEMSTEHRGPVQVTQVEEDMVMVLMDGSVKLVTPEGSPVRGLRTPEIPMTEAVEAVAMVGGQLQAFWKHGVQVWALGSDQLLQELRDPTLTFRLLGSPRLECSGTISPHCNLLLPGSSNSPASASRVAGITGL

| SMILES | IC50 [nM] |
| --- | --- |
| CN1CCc2cc(C(F)(F)F)c(Nc3ncc(Cl)c(Nc4ccccc4P(C)(C)=O)n3)cc2C1 [Example I-45, (2-((5-chloro-2-((2-methyl-6-(trifluoromethyl)-1,2,3,4-tetrahydroiso-quinolin-7-yl)amino)-pyrimidin-4-yl)-amino)phenyl)dimethylphosphine oxide] | 100 to 10000 |
| C=Cc1cnc(Nc2cc3c(cc2OC)CCN(C)C3)nc1Nc1ccccc1P(C)(C)=O [Example I-46, (2-((2-((6-Methoxy-2-methyl-1,2,3,4-tetrahydroisoquinolin-7-yl)amino)-5-vinylpyrimidin-4-yl)amino)phenyl)dimethylphosphine oxide] | < 5 |
| COc1cc2c(cc1Nc1ncc(-c3cnn(C)c3)c(Nc3ccccc3P(C)(C)=O)n1)CN(C)CC2 [Example I-47, (2-((2-((6-methoxy-2-methyl-1,2,3,4-tetrahydroisoquinolin-7-yl)amino)-5-(1-methyl-1H-pyrazol-4-yl)pyrimidin-4-yl)amino)phenyl)dimethylphosphine oxide] | 100 to 10000 |
| CCc1cnc(Nc2cc3c(cc2OC)CCN(C)C3)nc1Nc1ccccc1P(C)(C)=O [Example I-48, (2-((5-Ethyl-2-((6-methoxy-2-methyl-1,2,3,4-tetrahydroisoquinolin-7-yl)amino)pyrimidin-4-yl)amino)phenyl)dimethylphosphine oxide] | 5 to 10 |

Results, then the molecule that gave them:

| IC50 [nM] | SMILES |
| --- | --- |
| < 5 | COc1cc2c(cc1Nc1ncc(Cl)c(Nc3ccccc3S(=O)(=O)C(C)C)n1)CN(C)CC2 [II-1, 5-chloro-N^4-(2-(isopropylsulfonyl)phenyl)-N^2-(6-methoxy-2-methyl-1,2,3,4-tetrahydroisoquinolin-7-yl)pyrimidine-2,4-diamine] |
| < 5 | COc1cc2c(cc1Nc1ncc(Cl)c(Nc3ccccc3S(=O)(=O)N(C)C)n1)CN(C)CC2 [II-2, 2-((5-chloro-2-((6-methoxy-2-methyl-1,2,3,4-tetrahydroisoquinolin-7-yl)amino)pyrimidin-4-yl)amino) N,N-dimethylbenzenesulfonamide] |
| 5 to 10 | CNC(=O)c1ccccc1Nc1nc(Nc2cc3c(cc2OC)CCN(C)C3)ncc1Cl [II-3, 2-((5-chloro-2-((6-methoxy-2-methyl-1,2,3,4-tetrahydroisoquinolin-7-yl)amino)pyrimidin-4-yl)amino)-N-methylbenzamide] |

— patent US11180482B2, “Anilinopyrimidines as haematopoietic progenitor kinase 1 (HPK1) inhibitors” (Ariad Pharmaceuticals, Inc., priority 2016, dated 2021)
